# Measured values from PubChem BioAssay AID1963446 (Molecular Pharmacology Branch, DTP, NCI, 2024).
# Where “and” joins values, the source holds several entries; their conditions need not be identical. Equal entries are not always repeated.
# Test system: 993429-296-R-J1-PDC complex spheroid growth, percent test/control
# Test: Anticancer human tumor 993429-296-R-J1-PDC patient-derived uterine sarcoma cell line growth inhibition [Asc]
# Conditions: for viability, T/C: stronger effect = lower value
# How it was run: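 Complex spheroids combining tumor cells with HUVEC endothelial cells and human MSCs, at 37 degrees C, 5% CO2; agents tested alone or combined, half-log dilutions from at or near clinical Cmax, or 10 microM if Cmax unknown.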
# [1] = curve of first compound, second compound 0.1 µM
# [2] = curve of first compound, second compound 0.316 µM
# [3] = curve of first compound, second compound 1 µM
# [4] = curve of first compound, second compound 3.16 µM
# [5] = curve of first compound, second compound 10 µM
# [6] = second compound 0.1 µM, first compound 0.0316 µM
# [7] = second compound 0.1 µM, first compound 0.1 µM
# [8] = second compound 0.1 µM, first compound 0.316 µM
# [9] = second compound 0.1 µM, first compound 1 µM
# [10] = second compound 0.316 µM, first compound 0.0316 µM
# [11] = second compound 0.316 µM, first compound 0.1 µM
# [12] = second compound 0.316 µM, first compound 0.316 µM
# [13] = second compound 0.316 µM, first compound 1 µM
# [14] = second compound 1 µM, first compound 0.0316 µM
# [15] = second compound 1 µM, first compound 0.1 µM
# [16] = second compound 1 µM, first compound 0.316 µM
# [17] = second compound 1 µM, first compound 1 µM
# [18] = second compound 3.16 µM, first compound 0.0316 µM
# [19] = second compound 3.16 µM, first compound 0.1 µM
# [20] = second compound 3.16 µM, first compound 0.316 µM
# [21] = second compound 3.16 µM, first compound 1 µM
# [22] = second compound 10 µM, first compound 0.0316 µM
# [23] = second compound 10 µM, first compound 0.1 µM
# [24] = second compound 10 µM, first compound 0.316 µM
# [25] = second compound 10 µM, first compound 1 µM
# [26] = second compound 0.1 µM, first compound 0.00316 µM
# [27] = second compound 0.1 µM, first compound 0.01 µM
# [28] = second compound 0.316 µM, first compound 0.00316 µM
# [29] = second compound 0.316 µM, first compound 0.01 µM
# [30] = second compound 1 µM, first compound 0.00316 µM
# [31] = second compound 1 µM, first compound 0.01 µM
# 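Note: spheroids exposed to compounds for seven days.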
smiles,measurement,setting,value
C=C(F)C(=O)N1CCN(c2nc(OCC3CCCN3C)nc3c2CCN(c2cccc4cccc(Cl)c24)C3)CC1CC#N (configuration not stated) + Cc1c(S(C)(=O)=O)c(-c2cc(F)cc(N3CCN(c4ccc(NS(=O)(=O)c5ccc(NC(CCN6CCC(C(=O)OCCCP(=O)(O)O)CC6)CSc6ccccc6)c(S(=O)(=O)C(F)(F)F)c5)cc4)CC3)c2)c(-c2ccc(Cl)cc2)n1C(C)C,IC50,[1],494 nM
same,IC50,[2],460 nM
same,IC50,[3],321 nM
same,IC50,[4],< 31.6 nM
same,IC50,[5],553 nM
same,"viability, T/C",[6],57.1%
same,"viability, T/C",[7],85%
same,"viability, T/C",[8],69.2%
same,"viability, T/C",[9],17.5%
same,"viability, T/C","second compound 0.1 µM, first compound 3.16 µM",0.55%
same,"viability, T/C","second compound 0.1 µM, first compound 10 µM",0.23%
same,"viability, T/C",[10],71.8%
same,"viability, T/C",[11],77.1%
same,"viability, T/C",[12],70.6%
same,"viability, T/C",[13],7.35%
same,"viability, T/C","second compound 0.316 µM, first compound 3.16 µM",0.21%
same,"viability, T/C","second compound 0.316 µM, first compound 10 µM",0.19%
same,"viability, T/C",[14],49.5%
same,"viability, T/C",[15],60.8%
same,"viability, T/C",[16],50.5%
same,"viability, T/C",[17],5.26%
same,"viability, T/C","second compound 1 µM, first compound 3.16 µM",0.3%
same,"viability, T/C","second compound 1 µM, first compound 10 µM",0.14%
same,"viability, T/C",[18],46.9%
same,"viability, T/C",[19],49.6%
same,"viability, T/C",[20],35.9%
same,"viability, T/C",[21],7.98%
same,"viability, T/C","second compound 3.16 µM, first compound 3.16 µM",0.08%
same,"viability, T/C","second compound 3.16 µM, first compound 10 µM",0.17%
same,"viability, T/C",[22],78.9%
same,"viability, T/C",[23],108%
same,"viability, T/C",[24],87.3%
same,"viability, T/C",[25],10.4%
same,"viability, T/C","second compound 10 µM, first compound 3.16 µM",0.43%
same,"viability, T/C","second compound 10 µM, first compound 10 µM",0.3%
C=CC(=O)N1CCN(c2nc(=O)n(-c3c(C)ccnc3C(C)C)c3nc(-c4c(O)cccc4F)c(F)cc23)C(C)C1 (configuration not stated) + CCN1C(C(=O)NC23CCC(C(=O)O)(CC2)CC3)C(c2cccc(Cl)c2F)C2(C(=O)Nc3cc(Cl)ccc32)C12CCCCC2,IC50,"curve of first compound, second compound 0.03 µM",> 10000 nM
same,IC50,"curve of first compound, second compound 0.0949 µM",> 10000 nM
same,IC50,"curve of first compound, second compound 0.3 µM",> 10000 nM
same,IC50,"curve of first compound, second compound 0.949 µM",> 10000 nM
same,IC50,"curve of first compound, second compound 3 µM",> 10000 nM
same,"viability, T/C","second compound 0.03 µM, first compound 0.0316 µM",96.1%
same,"viability, T/C","second compound 0.03 µM, first compound 0.1 µM",101%
same,"viability, T/C","second compound 0.03 µM, first compound 0.316 µM",108%
same,"viability, T/C","second compound 0.03 µM, first compound 1 µM",86.2%
same,"viability, T/C","second compound 0.03 µM, first compound 3.16 µM",114%
same,"viability, T/C","second compound 0.03 µM, first compound 10 µM",76.1%
same,"viability, T/C","second compound 0.0949 µM, first compound 0.0316 µM",102%
same,"viability, T/C","second compound 0.0949 µM, first compound 0.1 µM",106%
same,"viability, T/C","second compound 0.0949 µM, first compound 0.316 µM",103%
same,"viability, T/C","second compound 0.0949 µM, first compound 1 µM",106%
same,"viability, T/C","second compound 0.0949 µM, first compound 3.16 µM",96.5%
same,"viability, T/C","second compound 0.0949 µM, first compound 10 µM",70.5%
same,"viability, T/C","second compound 0.3 µM, first compound 0.0316 µM",88.8%
same,"viability, T/C","second compound 0.3 µM, first compound 0.1 µM",102%
same,"viability, T/C","second compound 0.3 µM, first compound 0.316 µM",102%
same,"viability, T/C","second compound 0.3 µM, first compound 1 µM",106%
same,"viability, T/C","second compound 0.3 µM, first compound 3.16 µM",107%
same,"viability, T/C","second compound 0.3 µM, first compound 10 µM",85.7%
same,"viability, T/C","second compound 0.949 µM, first compound 0.0316 µM",102%
same,"viability, T/C","second compound 0.949 µM, first compound 0.1 µM",91.2%
same,"viability, T/C","second compound 0.949 µM, first compound 0.316 µM",128%
same,"viability, T/C","second compound 0.949 µM, first compound 1 µM",100%
same,"viability, T/C","second compound 0.949 µM, first compound 3.16 µM",94.9%
same,"viability, T/C","second compound 0.949 µM, first compound 10 µM",78.3%
same,"viability, T/C","second compound 3 µM, first compound 0.0316 µM",100%
same,"viability, T/C","second compound 3 µM, first compound 0.1 µM",87.6%
same,"viability, T/C","second compound 3 µM, first compound 0.316 µM",97.9%
same,"viability, T/C","second compound 3 µM, first compound 1 µM",96.3%
same,"viability, T/C","second compound 3 µM, first compound 3.16 µM",90.4%
same,"viability, T/C","second compound 3 µM, first compound 10 µM",77.9%
Cc1nc(N2CCC3(CC2)COC(C)C3N)c(CO)nc1Sc1ccnc(N)c1Cl (configuration not stated),"viability, T/C",compound 0.00949 µM,94.6% and 84.2% and 83.6%
same,"viability, T/C",compound 0.03 µM,93.1% and 77% and 87.6%
same,"viability, T/C",compound 0.0949 µM,75.2% and 65.9% and 54.9%
same,"viability, T/C",compound 0.3 µM,58.9% and 43% and 42.1%
same,"viability, T/C",compound 0.949 µM,49% and 32.2% and 34.5%
same,"viability, T/C",compound 3 µM,40.3% and 25.8% and 27.8%
same,IC50,curve of compound,712 nM and 216 nM and 144 nM
O=C(c1ccc(F)c(F)c1Nc1ccc(I)cc1F)N1CC(O)([C@@H]2CCCCN2)C1 + CNC(C)C(=O)NC1CN(S(=O)(=O)c2cccc(S(=O)(=O)N3CCC4CCC(C(=O)NC(c5ccccc5)c5ccccc5)N4C(=O)C(NC(=O)C(C)NC)C3)c2)CCC2CCC(C(=O)NC(c3ccccc3)c3ccccc3)N2C1=O,IC50,"curve of first compound, second compound 0.01 µM",56.5 nM
same,IC50,"curve of first compound, second compound 0.0316 µM",30.9 nM
same,IC50,[1],27.2 nM
same,IC50,[2],< 3.16 nM
same,IC50,[3],11.4 nM
same,"viability, T/C","second compound 0.01 µM, first compound 0.00316 µM",65.5%
same,"viability, T/C","second compound 0.01 µM, first compound 0.01 µM",64.5%
same,"viability, T/C","second compound 0.01 µM, first compound 0.0316 µM",50.4%
same,"viability, T/C","second compound 0.01 µM, first compound 0.1 µM",48.9%
same,"viability, T/C","second compound 0.01 µM, first compound 0.316 µM",25.3%
same,"viability, T/C","second compound 0.01 µM, first compound 1 µM",1.67%
same,"viability, T/C","second compound 0.0316 µM, first compound 0.00316 µM",61.7%
same,"viability, T/C","second compound 0.0316 µM, first compound 0.01 µM",51.2%
same,"viability, T/C","second compound 0.0316 µM, first compound 0.0316 µM",55.2%
same,"viability, T/C","second compound 0.0316 µM, first compound 0.1 µM",33.4%
same,"viability, T/C","second compound 0.0316 µM, first compound 0.316 µM",19.1%
same,"viability, T/C","second compound 0.0316 µM, first compound 1 µM",1.07%
same,"viability, T/C",[26],56.4%
same,"viability, T/C",[27],57.5%
same,"viability, T/C",[6],50.7%
same,"viability, T/C",[7],29.6%
same,"viability, T/C",[8],14.9%
same,"viability, T/C",[9],1.5%
same,"viability, T/C",[28],48.3%
same,"viability, T/C",[29],45.4%
same,"viability, T/C",[10],50.7%
same,"viability, T/C",[11],34.1%
same,"viability, T/C",[12],11%
same,"viability, T/C",[13],0.99%
same,"viability, T/C",[30],54.8%
same,"viability, T/C",[31],48.4%
same,"viability, T/C",[14],43.6%
same,"viability, T/C",[15],38.5%
same,"viability, T/C",[16],12.7%
same,"viability, T/C",[17],0.99%
CNC(C)C(=O)NC1CN(S(=O)(=O)c2cccc(S(=O)(=O)N3CCC4CCC(C(=O)NC(c5ccccc5)c5ccccc5)N4C(=O)C(NC(=O)C(C)NC)C3)c2)CCC2CCC(C(=O)NC(c3ccccc3)c3ccccc3)N2C1=O (configuration not stated) + Cc1c(S(C)(=O)=O)c(-c2cc(F)cc(N3CCN(c4ccc(NS(=O)(=O)c5ccc(NC(CCN6CCC(C(=O)OCCCP(=O)(O)O)CC6)CSc6ccccc6)c(S(=O)(=O)C(F)(F)F)c5)cc4)CC3)c2)c(-c2ccc(Cl)cc2)n1C(C)C,IC50,[1],542 nM
same,IC50,[2],100 nM
same,IC50,[3],< 3.16 nM
same,IC50,[4],3.25 nM
same,IC50,[5],901 nM
same,"viability, T/C",[26],75.5%
same,"viability, T/C",[27],60.4%
same,"viability, T/C",[6],62.1%
same,"viability, T/C",[7],53%
same,"viability, T/C",[8],56%
same,"viability, T/C",[9],45.3%
same,"viability, T/C",[28],59.3%
same,"viability, T/C",[29],59.7%
same,"viability, T/C",[10],54.3%
same,"viability, T/C",[11],42%
same,"viability, T/C",[12],54.6%
same,"viability, T/C",[13],41.7%
same,"viability, T/C",[30],48.9%
same,"viability, T/C",[31],40.8%
same,"viability, T/C",[14],47.4%
same,"viability, T/C",[15],48.9%
same,"viability, T/C",[16],41.6%
same,"viability, T/C",[17],42.8%
same,"viability, T/C","second compound 3.16 µM, first compound 0.00316 µM",50.2%
same,"viability, T/C","second compound 3.16 µM, first compound 0.01 µM",39.1%
same,"viability, T/C",[18],29.4%
same,"viability, T/C",[19],30.7%
same,"viability, T/C",[20],34.5%
same,"viability, T/C",[21],24.1%
same,"viability, T/C","second compound 10 µM, first compound 0.00316 µM",85.5%
same,"viability, T/C","second compound 10 µM, first compound 0.01 µM",81.9%
same,"viability, T/C",[22],67.5%
same,"viability, T/C",[23],56.8%
same,"viability, T/C",[24],45.5%
same,"viability, T/C",[25],53.5%
